Reference: patent publication US11006631B2, “Substituted pyrimidinyloxy pyridine derivatives as herbicides” (FMC Corporation, priority 2015, dated 2021)

Key:
Format in all cases: in vivo
rice (Oryza sativa) = experiment: Test B flooded paddy test, rice; details: Flood, 250 g ai/ha; scale of 0 to 100
Protocol: (§1) Plant species in the flooded paddy test selected from rice (Oryza sativa), sedge, umbrella (small-flower umbrella sedge, Cyperus difformis), ducksalad (Heteranthera limosa), and barnyardgrass (Echinochloa crus-galli) were grown to the 2-leaf stage for testing. At time of treatment, test pots were flooded to 3 cm above the soil surface, treated by application of test compounds directly to the paddy water, and then maintained at that water depth for the duration of the test. Treated plants and controls were maintained in a greenhouse for 13 to 15 days, after which time all species were compared to controls and visually evaluated. Plant response ratings, summarized in Table B, are based on a scale of 0 to 100 where 0 is no effect and 100 is complete control. A dash (-) response means no test result.

[1] = test system: ducksalad (Heteranthera limosa); experiment: Test B flooded paddy test, ducksalad; details: Flood, 250 g ai/ha; scale of 0 to 100
Protocol: as §1

[2] = test system: foxtail, giant (giant foxtail, Setaria faberii); experiment: Test A preemergence, foxtail, giant; details: 0 to 100 scale
Text: (§2) Seeds of plant species selected from bamyardgrass (Echinochloa crus-galli), kochia (Kochia scoparia), ragweed (common ragweed, Ambrosia elatior), ryegrass, Italian (Italian ryegrass, Lolium multiflorum), foxtail, giant (giant foxtail, Setaria faberii), pigweed (Amaranthus retroflexus), crabgrass, large (large crabgrass, Digitaria sanguinalis), momingglory (Ipomoea spp.), velvetleaf (Abutilon theophrasti), wheat (Triticum aestivum), and corn (Zea mays) were planted into a blend of loam soil and sand and treated preemergence with a directed soil spray using test chemicals formulated in a non-phytotoxic solvent mixture which included a surfactant. At the same time, plants selected from these crop and weed species and also blackgrass (Alopecurus myosuroides), and galium (catchweed bedstraw, Galium aparine) were planted in pots containing the same blend of loam soil and sand and treated with postemergence applications of test chemicals formulated in the same manner. Plants ranged in height from 2 to 10 cm and were in the one- to two-leaf stage for the postemergence treatment. Treated plants and untreated controls were maintained in a greenhouse for approximately 10 days, after which time all treated plants were compared to untreated controls and visually evaluated for injury. Plant response ratings, summarized in Table A, are based on a 0 to 100 scale where 0 is no effect and 100 is complete control. A dash (-) response means no test result.

[3] = test system: pigweed (Amaranthus retroflexus); experiment: Test A preemergence, pigweed; details: 0 to 100 scale
Text: as §2

kochia (Kochia scoparia) [4] = experiment: Test A preemergence, kochia; details: 0 to 100 scale
Text: as §2

[5] = test system: wheat (Triticum aestivum); experiment: Test A postemergence, wheat; details: 0 to 100 scale
Text: as §2

corn (Zea mays) = experiment: Test A postemergence, corn; details: 0 to 100 scale
Text: as §2

[6] = test system: galium (catchweed bedstraw, Galium aparine); experiment: Test A postemergence, galium; details: 0 to 100 scale
Text: as §2

kochia (Kochia scoparia) [7] = experiment: Test A postemergence, kochia; details: 0 to 100 scale
Text: as §2

[8] = test system: pigweed (Amaranthus retroflexus); experiment: Test A postemergence, pigweed; details: 0 to 100 scale
Text: as §2

[9] = test system: blackgrass (Alopecurus myosuroides); experiment: Test A postemergence, blackgrass; details: 0 to 100 scale
Text: as §2

[10] = test system: barnyardgrass (Echinochloa crus-galli); experiment: Test B flooded paddy test, barnyardgrass; details: Flood, 250 g ai/ha; scale of 0 to 100
Protocol: as §1

[11] = test system: ragweed (common ragweed, Ambrosia elatior); experiment: Test A preemergence, ragweed; details: 0 to 100 scale
Text: as §2

[12] = test system: ryegrass, Italian (Italian ryegrass, Lolium multiflorum); experiment: Test A postemergence, ryegrass, Italian; details: 0 to 100 scale
Text: as §2

[13] = test system: barnyardgrass (Echinochloa crus-galli); experiment: Test A preemergence, barnyardgrass; details: 0 to 100 scale
Text: as §2

[14] = test system: foxtail, giant (giant foxtail, Setaria faberii); experiment: Test A postemergence, foxtail, giant; details: 0 to 100 scale
Text: as §2

[15] = test system: ragweed (common ragweed, Ambrosia elatior); experiment: Test A postemergence, ragweed; details: 0 to 100 scale
Text: as §2

[16] = test system: barnyardgrass (Echinochloa crus-galli); experiment: Test A postemergence, barnyardgrass; details: 0 to 100 scale
Text: as §2

[17] = test system: sedge, umbrella (small-flower umbrella sedge, Cyperus difformis); experiment: Test B flooded paddy test, sedge, umbrella; details: Flood, 250 g ai/ha; scale of 0 to 100
Protocol: as §1

[18] = test system: ryegrass, Italian (Italian ryegrass, Lolium multiflorum); experiment: Test A preemergence, ryegrass, Italian; details: 0 to 100 scale
Text: as §2

FC(F)c1cc(-c2ncccc2Oc2ncc(Cl)cn2)no1 [Compound 6, 5-chloro-2-[[2-[5-(difluoromethyl)-3-isoxazolyl]-3-pyridinyl]oxy]pyrimidine]
Plant response rating, Rice (rice (Oryza sativa)): 0 | Plant response rating, Ducksalad [1]: 30 | Plant response rating, Foxtail, Giant ([2]; 31 g ai/ha): 0 | Plant response rating, Foxtail, Giant ([2]; 125 g ai/ha): 90 | Plant response rating, Pigweed ([3]; 31 g ai/ha): 90 | Plant response rating, Pigweed ([3]; 125 g ai/ha): 100 | Plant response rating, Kochia (kochia (Kochia scoparia) [4]; 31 g ai/ha): 60 | Plant response rating, Kochia (kochia (Kochia scoparia) [4]; 125 g ai/ha): 90 | Plant response rating, Wheat ([5]; 31 g ai/ha): 20 | Plant response rating, Wheat ([5]; 125 g ai/ha): 30 | Plant response rating, Corn (corn (Zea mays); 31 g ai/ha): 20 | Plant response rating, Corn (corn (Zea mays); 125 g ai/ha): 30 | Plant response rating, Galium ([6]; 31 g ai/ha): 50 | Plant response rating, Galium ([6]; 125 g ai/ha): 70 | Plant response rating, Kochia (kochia (Kochia scoparia) [7]; 31 g ai/ha): 90 | Plant response rating, Kochia (kochia (Kochia scoparia) [7]; 125 g ai/ha): 100 | Plant response rating, Pigweed ([8]; 31 g ai/ha): 70 | Plant response rating, Pigweed ([8]; 125 g ai/ha): 100 | Plant response rating, Blackgrass ([9]; 31 g ai/ha): 0 | Plant response rating, Blackgrass ([9]; 125 g ai/ha): 20 | Plant response rating, Barnyardgrass [10]: 0 | Plant response rating, Ragweed ([11]; 31 g ai/ha): 0 | Plant response rating, Ragweed ([11]; 125 g ai/ha): 50 | Plant response rating, Ryegrass, Italian ([12]; 31 g ai/ha): 0 | Plant response rating, Ryegrass, Italian ([12]; 125 g ai/ha): 10 | Plant response rating, Barnyardgrass ([13]; 31 g ai/ha): 0 | Plant response rating, Barnyardgrass ([13]; 125 g ai/ha): 70 | Plant response rating, Foxtail, Giant ([14]; 31 g ai/ha): 20 | Plant response rating, Foxtail, Giant ([14]; 125 g ai/ha): 40 | Plant response rating, Ragweed ([15]; 31 g ai/ha): 20 | Plant response rating, Ragweed ([15]; 125 g ai/ha): 40 | Plant response rating, Barnyardgrass ([16]; 31 g ai/ha): 10 | Plant response rating, Barnyardgrass ([16]; 125 g ai/ha): 30 | Plant response rating, Sedge, Umbrella [17]: 0 | Plant response rating, Ryegrass, Italian ([18]; 31 g ai/ha): 0 | Plant response rating, Ryegrass, Italian ([18]; 125 g ai/ha): 0

Fc1cnc(Oc2cccnc2-c2cc(C(F)F)no2)nc1 [Compound 7]
Plant response rating, Rice (rice (Oryza sativa)): 0 | Plant response rating, Ducksalad [1]: 50 | Plant response rating, Foxtail, Giant ([2]; 31 g ai/ha): 0 | Plant response rating, Foxtail, Giant ([2]; 125 g ai/ha): 20 | Plant response rating, Pigweed ([3]; 31 g ai/ha): 70 | Plant response rating, Pigweed ([3]; 125 g ai/ha): 100 | Plant response rating, Kochia (kochia (Kochia scoparia) [4]; 31 g ai/ha): 20 | Plant response rating, Kochia (kochia (Kochia scoparia) [4]; 125 g ai/ha): 70 | Plant response rating, Wheat ([5]; 31 g ai/ha): 0 | Plant response rating, Wheat ([5]; 125 g ai/ha): 20 | Plant response rating, Corn (corn (Zea mays); 31 g ai/ha): 0 | Plant response rating, Corn (corn (Zea mays); 125 g ai/ha): 0 | Plant response rating, Galium ([6]; 31 g ai/ha): 20 | Plant response rating, Galium ([6]; 125 g ai/ha): 50 | Plant response rating, Kochia (kochia (Kochia scoparia) [7]; 31 g ai/ha): 70 | Plant response rating, Kochia (kochia (Kochia scoparia) [7]; 125 g ai/ha): 90 | Plant response rating, Pigweed ([8]; 31 g ai/ha): 20 | Plant response rating, Pigweed ([8]; 125 g ai/ha): 70 | Plant response rating, Blackgrass ([9]; 31 g ai/ha): 0 | Plant response rating, Blackgrass ([9]; 125 g ai/ha): 0 | Plant response rating, Barnyardgrass [10]: 0 | Plant response rating, Ragweed ([11]; 31 g ai/ha): 0 | Plant response rating, Ragweed ([11]; 125 g ai/ha): 30 | Plant response rating, Ryegrass, Italian ([12]; 31 g ai/ha): 0 | Plant response rating, Ryegrass, Italian ([12]; 125 g ai/ha): 0 | Plant response rating, Barnyardgrass ([13]; 31 g ai/ha): 0 | Plant response rating, Barnyardgrass ([13]; 125 g ai/ha): 20 | Plant response rating, Foxtail, Giant ([14]; 31 g ai/ha): 0 | Plant response rating, Foxtail, Giant ([14]; 125 g ai/ha): 0 | Plant response rating, Ragweed ([15]; 31 g ai/ha): 0 | Plant response rating, Ragweed ([15]; 125 g ai/ha): 10 | Plant response rating, Barnyardgrass ([16]; 31 g ai/ha): 0 | Plant response rating, Barnyardgrass ([16]; 125 g ai/ha): 0 | Plant response rating, Sedge, Umbrella [17]: 0 | Plant response rating, Ryegrass, Italian ([18]; 31 g ai/ha): 0 | Plant response rating, Ryegrass, Italian ([18]; 125 g ai/ha): 0

[O-][n+]1cccc(Oc2ncc(Cl)cn2)c1-c1cc(C(F)F)on1 [Compound 8, 5-chloro-2-[[2-[5-(difluoromethyl)-3-isoxazolyl]-1-oxido-3-pyridinyl]oxy]pyrimidine]
Plant response rating, Rice (rice (Oryza sativa)): 0 | Plant response rating, Ducksalad [1]: 40 | Plant response rating, Foxtail, Giant ([2]; 31 g ai/ha): 0 | Plant response rating, Foxtail, Giant ([2]; 125 g ai/ha): 10 | Plant response rating, Pigweed ([3]; 31 g ai/ha): 40 | Plant response rating, Pigweed ([3]; 125 g ai/ha): 90 | Plant response rating, Kochia (kochia (Kochia scoparia) [4]; 31 g ai/ha): 0 | Plant response rating, Kochia (kochia (Kochia scoparia) [4]; 125 g ai/ha): 40 | Plant response rating, Wheat ([5]; 31 g ai/ha): 10 | Plant response rating, Wheat ([5]; 125 g ai/ha): 20 | Plant response rating, Corn (corn (Zea mays); 31 g ai/ha): 0 | Plant response rating, Corn (corn (Zea mays); 125 g ai/ha): 20 | Plant response rating, Galium ([6]; 31 g ai/ha): 40 | Plant response rating, Galium ([6]; 125 g ai/ha): 60 | Plant response rating, Kochia (kochia (Kochia scoparia) [7]; 31 g ai/ha): 40 | Plant response rating, Kochia (kochia (Kochia scoparia) [7]; 125 g ai/ha): 70 | Plant response rating, Pigweed ([8]; 31 g ai/ha): 50 | Plant response rating, Pigweed ([8]; 125 g ai/ha): 70 | Plant response rating, Blackgrass ([9]; 31 g ai/ha): 0 | Plant response rating, Blackgrass ([9]; 125 g ai/ha): 10 | Plant response rating, Barnyardgrass [10]: 0 | Plant response rating, Ragweed ([11]; 31 g ai/ha): 0 | Plant response rating, Ragweed ([11]; 125 g ai/ha): 0 | Plant response rating, Ryegrass, Italian ([12]; 31 g ai/ha): 0 | Plant response rating, Ryegrass, Italian ([12]; 125 g ai/ha): 0 | Plant response rating, Barnyardgrass ([13]; 31 g ai/ha): 0 | Plant response rating, Barnyardgrass ([13]; 125 g ai/ha): 0 | Plant response rating, Foxtail, Giant ([14]; 31 g ai/ha): 0 | Plant response rating, Foxtail, Giant ([14]; 125 g ai/ha): 10 | Plant response rating, Ragweed ([15]; 31 g ai/ha): 30 | Plant response rating, Ragweed ([15]; 125 g ai/ha): 50 | Plant response rating, Barnyardgrass ([16]; 31 g ai/ha): 0 | Plant response rating, Barnyardgrass ([16]; 125 g ai/ha): 10 | Plant response rating, Sedge, Umbrella [17]: 0 | Plant response rating, Ryegrass, Italian ([18]; 31 g ai/ha): 0 | Plant response rating, Ryegrass, Italian ([18]; 125 g ai/ha): 0

[O-][n+]1cccc(Oc2ncc(Cl)cn2)c1-n1cc(Br)cn1 [Compound 11]
Plant response rating, Foxtail, Giant ([2]; 1000 g ai/ha): 0 | Plant response rating, Pigweed ([3]; 1000 g ai/ha): 100 | Plant response rating, Kochia (kochia (Kochia scoparia) [4]; 1000 g ai/ha): 30 | Plant response rating, Wheat ([5]; 1000 g ai/ha): 0 | Plant response rating, Corn (corn (Zea mays); 1000 g ai/ha): 0 | Plant response rating, Galium ([6]; 1000 g ai/ha): 40 | Plant response rating, Kochia (kochia (Kochia scoparia) [7]; 1000 g ai/ha): 60 | Plant response rating, Pigweed ([8]; 1000 g ai/ha): 90 | Plant response rating, Blackgrass ([9]; 1000 g ai/ha): 10 | Plant response rating, Ragweed ([11]; 1000 g ai/ha): 30 | Plant response rating, Ryegrass, Italian ([12]; 1000 g ai/ha): 0 | Plant response rating, Barnyardgrass ([13]; 1000 g ai/ha): 0 | Plant response rating, Foxtail, Giant ([14]; 1000 g ai/ha): 0 | Plant response rating, Ragweed ([15]; 1000 g ai/ha): 20 | Plant response rating, Barnyardgrass ([16]; 1000 g ai/ha): 0 | Plant response rating, Ryegrass, Italian ([18]; 1000 g ai/ha): 0
